Where two headings read alike, the source gives them in different places.
B1: secreted EPO receptor: secreted human erythropoietin receptor lacking transmembrane and cytoplasmic domains, tested as conditioned media from a CHO line (protein, UniProt P19235 25-250, looked up)
extracellular domain: APPPNLPDPKFESKAALLAARGPEELLCFTERLEDLVCFWEEAASAGVGPGNYSFSYQLEDEPWKLCRLHQAPTARGAVRFWCSLPTADTSSFVPLELRVTAASGAPRYHRVIHINEVVLLDAPVGLVARLADESGHVVLRWLPPPETPMTSHIRYEVDVSAGNGAGSVQRVEILEGRTECVLSNLRGRTRYTFAVRARMAEPSFGGFWSAWSEPVSLLTPSDLDP
modifications: extracellular domain
notes: secreted human erythropoietin receptor lacking transmembrane and cytoplasmic domains, tested as conditioned media from a CHO line

Legend:
human EPO receptor = experiment: Erythropoietin surface binding assay on stable CHO lines expressing the human EPO receptor; details: one hour at 37° C.
Experimental: Confluent monolayers of MEL cells, grown in 60 mm bacteriophage petri dishes pre-coated with fibronectin, were prepared (Patel and Lodish, supra (1987)). Confluent monolayers of COS-1 cells, transfected by the DEAE dextran method 72 hours before the binding assay with either two micrograms of clone 190 cDNA in pXM or two micrograms of pXM without cDNA insert (mock-transfected) per monolayer, were prepared. Monolayers were washed at 4° C. with HBS/Hepes three times. Radioiodinated EPO (10 pM to 2nM range) was added to each monolayer in LBB. Incubations were performed at 4° C. for eight hours with gentle rocking. Monolayers were washed, solubilized, and counted in the gamma counter as described. Assays for nonspecific binding were performed in which the assay mixture contained a 100-fold excess 1(100 nM) of unlabeled erythropoietin. The radioactivity bound in the assays with excess unlabeled erythropoietin (nonspecific binding) was subtracted from the total binding to yield the specific binding. All binding assays were run in duplicate. The level of cell surface expression of the human EPO receptor was determined by the erythropoietin surface binding assay, described above for the expression of the murine EPO receptor in COS-1 cells, except that radioiodinated EPO, from 10 pM to 2 nM, was bound for one hour at 37° C. in the presence of 0.02% (w/v) sodium azide and 1% (v/v) aprotinin.

[1] = target: EPO-responsive splenic erythroblasts; details: FVA-injected mice, cited from earlier work
[2] = tested on: EPO receptor on MEL cells; experiment: Erythropoietin surface binding assay on MEL cell monolayers; parameters: species or system mouse; details: single affinity; radioiodinated human EPO, 8 hours at 4° C.; read-out: affinity of MEL cell EPO-R for EPO
Experimental: FIG. 4 is a saturation curve showing the binding of iodinated EPO to MEL cells. Non-specific binding was determined by co-incubation with 100 nM of unlabeled EPO. The MEL cells were grown on fibronectin monolayers and were incubated with various concentrations of radioiodinated human EPO for eight hours at 4° C. The specific binding is shown as the difference between total and non-specific binding. The inset is a Scatchard plot of the same data. […] For these experiments, MEL cells, grown as monolayers on fibronectin coated dishes, were incubated for eight hours at 4° C. with ^125 I EPO. Specific binding and nonspecific binding of [^125 I]-EPO, measured in the presence of 100 nM unlabeled EPO was determined. Nonspecific binding was approximately half of the total (=specific plus nonspecific) binding. Because of the relatively low number of EPO-R on MEL cells and, therefore, the small specific binding observed at low concentrations of [^125 I-EPO], in the 10-50 pM range, it is not possible to rule out a high affinity EPO-R in this range. […] Monolayers were washed, solubilized, and counted in the gamma counter as described. […] The radioactivity bound in the assays with excess unlabeled erythropoietin (nonspecific binding) was subtracted from the total binding to yield the specific binding. […]

[3] = purified, homogeneous erythropoietin; cited from earlier work
[4] = tested on: recombinant murine EPO receptor expressed in COS cells; experiment: Erythropoietin surface binding assay on COS-EPO-R transfectants (clone 190); parameters: species or system mouse
Experimental: FIG. 5 is a saturation curve showing the binding of iodinated EPO to cells expressing recombinant EPO-receptors. COS-EPO-R transfectants were incubated with various concentrations of radioiodinated human EPO for eight hours at 4° C. Non-specific binding was determined by incubating radioiodinated EPO with COS-1 monolayers, mock treated with the pXM vector (without the EPO-R cDNA insert). Also, for comparison, one binding point was determined for [^125 I]-EPO binding to COS EPO-R transfectants in the presence of […] unlabeled EPO. The inset is a Scatchard plot of the same data. Binding was compared for COS transfectants expressing EPO-R (specific binding) versus COS cells mock-transfected with the pXM plasmid without the EPO-R cDNA insert (non-specific binding). At all EPO concentrations, specific binding was approximately […] the binding to mock-transfected cells. By the above criterion, over 85% of this binding is deemed specific, though the "non-specific" binding could represent low-affinity binding to the transfected EPO receptor. […] Confluent monolayers of MEL cells, grown in 60 mm bacteriophage petri dishes pre-coated with fibronectin, were prepared (Patel and Lodish, supra (1987)). Confluent monolayers of COS-1 cells, transfected by the DEAE dextran method 72 hours before the binding assay with either two micrograms of clone 190 cDNA in pXM or two micrograms of pXM without cDNA insert (mock-transfected) per monolayer, were prepared. Monolayers were washed at 4° C. with HBS/Hepes three times. Radioiodinated EPO (10 pM to 2nM range) was added to each monolayer in LBB. Incubations were performed at 4° C. for eight hours with gentle rocking. Monolayers were washed, solubilized, and counted in the gamma counter as described. Assays for nonspecific binding were performed in which the assay mixture contained a 100-fold excess 1(100 nM) of unlabeled erythropoietin. The radioactivity bound in the assays with excess unlabeled erythropoietin (nonspecific binding) was subtracted from the total binding to yield the specific binding. All binding assays were run in duplicate.

EPO receptor = details: most cell surface binding studies; read-out: Kd, single class of binding sites; cited from earlier work
FDCPE cells = experiment: Inhibition of the EPO response of FDCPE cells by secreted EPO receptor; format: cell-based, mouse; details: 0.4, 0.8 and 1 u/ml EPO; serial dilutions of CHO conditioned media (ca. 0.5 μg/ml secreted receptor)
Experimental: The FDCPE and 32DE cell lines were further characterized by their dose dependent response to EPO. A 96 well plate was seeded with 1×10^4 cells/well and incubated with EPO (0.0001 to 10 u/ml) for 24 hours and then labelled with [^3 H]-thymidine for 4hr, the cells were collected and counted for thymidine incorporation. The cells respond to EPO dose dependent manner from 0.01 to 1 u/ml.
FDCPE cells were incubated and assayed with either 0.4, 0.8 and 1 u/ml of EPO as described above but also with serial dilutions of media from a CHO line expressing the secreted EPO receptor (ca. 0.5 μg/ml).

Molecule	Kd (human EPO receptor; CHO cell line 9'.250, 34% of sites, Scatchard analysis, read-out: affinity for EPO, higher affinity sites) [nM]	Kd (human EPO receptor; CHO cell line 9'.250, Scatchard analysis, read-out: affinity for EPO, remainder of sites) [nM]	Kd (human EPO receptor; CHO cell line 10'.1.25, read-out: affinity for EPO, single affinity) [nM]	Kd ([1]; read-out: dissociation constant, high affinity binding site) [nM]	Kd ([1]; read-out: dissociation constant, low affinity binding site) [nM]	Kd [2] [nM]	specific activity [3]	Kd ([4]; COS transfectants, Scatchard analysis, 8 hours at 4° C., read-out: dissociation constant, high affinity receptor) [nM]	Kd ([4]; COS transfectants, Scatchard analysis, 8 hours at 4° C., read-out: dissociation constant, low affinity receptor) [nM]	Kd ([4]; cell type not stated, read-out: dissociation constant of the high affinity receptor) [nM]	Kd (EPO receptor) [nM]	inhibition of [3H]-thymidine incorporation into FDCPE cells (FDCPE cells)
erythropoietin [EPO]	0.126	0.66	3	0.1	0.8	~0.24	at least 160,000 IU per absorbance unit at 280 nanometers	0.03	0.21	0.05	~0.8	–
B1	–	–	–	–	–	–	–	–	–	–	–	inhibited the incorporation of [^3 H]-thymidine into the FDCPE cells
